{"source": "patent US12655116B2", "about": "“Substituted isophthalic acid diamides” (Bayer Aktiengesellschaft, priority 2020, dated 2026)", "key": {"[1]": {"system": "ABUTH", "assay": "Pre-emergence herbicidal action against ABUTH", "assay_type": "in vivo, Abutilon theophrasti", "details": "Abutilon theophrasti, 504 h", "how_it_was_run": "(§1)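 Pre-emergence soil-surface spray of formulated compound (WP or EC; 600 to 800 l/ha; 0.2% wetting agent) over seeds sown in sandy loam. After 3 weeks under greenhouse conditions, damage is estimated visually in percent against untreated plants.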"}, "[2]": {"system": "ALOMY", "assay": "Pre-emergence herbicidal action against ALOMY", "assay_type": "in vivo, Alopecurus myosuroides", "details": "Alopecurus myosuroides, 504 h, pre-emergence", "how_it_was_run": "as §1"}, "[3]": {"system": "AMARE", "assay": "Pre-emergence herbicidal action against AMARE", "assay_type": "in vivo, Amaranthus retroflexus", "details": "Amaranthus retroflexus, 504 h, scored visually after 3 weeks vs untreated controls, 100% = plants have died, 0% = like control plants", "how_it_was_run": "as §1"}, "[4]": {"system": "AVEFA", "assay": "Pre-emergence herbicidal action against AVEFA", "assay_type": "in vivo, Avena fatua", "details": "Avena fatua, 504 h, pre-emergence", "how_it_was_run": "as §1"}, "[5]": {"system": "ECHCG", "assay": "Pre-emergence herbicidal action against ECHCG", "assay_type": "in vivo, Echinochloa crus-galli", "details": "Echinochloa crus-galli, 504 h, 80 g/ha", "how_it_was_run": "as §1"}, "[6]": {"system": "HORMU", "assay": "Pre-emergence herbicidal action against HORMU", "assay_type": "in vivo, Hordeum murinum", "details": "Hordeum murinum, 504 h; 80 g/ha, pre-emergence", "how_it_was_run": "as §1"}, "[7]": {"system": "LOLRI", "assay": "Pre-emergence herbicidal action against LOLRI", "assay_type": "in vivo, Lolium rigidum", "details": "Lolium rigidum, 504 h, 80 g/ha", "how_it_was_run": "as §1"}, "[8]": {"system": "MATIN", "assay": "Pre-emergence herbicidal action against MATIN", "assay_type": "in vivo, Matricaria inodora", "details": "Tripleurospermum inodorum, 504 h", "how_it_was_run": "as §1"}, "[9]": {"system": "POLCO", "assay": "Pre-emergence herbicidal action against POLCO", "assay_type": "in vivo, Polygonum convolvulus", "details": "Fallopia convolvulus, 504 h, dosage 80 g/ha", "how_it_was_run": "as §1"}, "[10]": {"system": "SETVI", "assay": "Pre-emergence herbicidal action against SETVI", "assay_type": "in vivo, Setaria viridis", "details": "Setaria viridis, 504 h", "how_it_was_run": "as §1"}, "[11]": {"system": "STEME", "assay": "Pre-emergence herbicidal action against STEME", "assay_type": "in vivo, Stellaria media", "details": "Stellaria media, 504 h", "how_it_was_run": "as §1"}, "[12]": {"system": "VIOTR", "assay": "Pre-emergence herbicidal action against VIOTR", "assay_type": "in vivo, Viola tricolor", "details": "Viola tricolor, 504 h", "how_it_was_run": "as §1"}, "[13]": {"system": "DIGSA", "assay": "Pre-emergence herbicidal action against DIGSA", "assay_type": "in vivo, Digitaria sanguinalis", "details": "Digitaria sanguinalis, 504 h", "how_it_was_run": "as §1"}, "[14]": {"system": "ABUTH", "assay": "Post-emergence herbicidal action against ABUTH", "assay_type": "in vivo, Abutilon theophrasti", "details": "Abutilon theophrasti, 504 h, visual assessment about 3 weeks after treatment vs untreated controls", "how_it_was_run": "(§2)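 Greenhouse plants in sandy loam were sprayed at the one-leaf stage, 2 to 3 weeks after sowing, with WP or EC formulations as aqueous suspension or emulsion (600 to 800 l/ha water, 0.2% wetting agent). Visual damage was scored about 3 weeks later versus untreated controls, 0% = like control, 100% = dead.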"}, "[15]": {"system": "ALOMY", "assay": "Post-emergence herbicidal action against ALOMY", "assay_type": "in vivo, Alopecurus myosuroides", "details": "Alopecurus myosuroides, 504 h, dosage 20 g/ha, visual assessment about 3 weeks after treatment vs untreated controls", "how_it_was_run": "as §2"}, "[16]": {"system": "AMARE", "assay": "Post-emergence herbicidal action against AMARE", "assay_type": "in vivo, Amaranthus retroflexus", "details": "Amaranthus retroflexus, 504 h, 20 g/ha, visual assessment about 3 weeks after treatment, 100% = plants have died, 0% = like control plants", "how_it_was_run": "as §2"}, "[17]": {"system": "AVEFA", "assay": "Post-emergence herbicidal action against AVEFA", "assay_type": "in vivo, Avena fatua", "details": "Avena fatua, 504 h, 20 g/ha, visual assessment about 3 weeks after treatment, 100% = plants have died, 0% = like control plants", "how_it_was_run": "as §2"}, "[18]": {"system": "ECHCG", "assay": "Post-emergence herbicidal action against ECHCG", "assay_type": "in vivo, Echinochloa crus-galli", "details": "Echinochloa crus-galli, 504 h, dosage 20 g/ha", "how_it_was_run": "as §2"}, "[19]": {"system": "HORMU", "assay": "Post-emergence herbicidal action against HORMU", "assay_type": "in vivo, Hordeum murinum", "details": "Hordeum murinum, 504 h, dosage 20 g/ha", "how_it_was_run": "as §2"}, "[20]": {"system": "MATIN", "assay": "Post-emergence herbicidal action against MATIN", "assay_type": "in vivo, Matricaria inodora", "details": "Tripleurospermum inodorum, 504 h", "how_it_was_run": "as §2"}, "[21]": {"system": "PHBPU", "assay": "Post-emergence herbicidal action against PHBPU", "assay_type": "in vivo, Pharbitis purpurea", "details": "Ipomoea purpurea, 504 h, dosage 20 g/ha", "how_it_was_run": "as §2"}, "[22]": {"system": "SETVI", "assay": "Post-emergence herbicidal action against SETVI", "assay_type": "in vivo, Setaria viridis", "details": "Setaria viridis, 504 h, dosage 20 g/ha", "how_it_was_run": "as §2"}, "[23]": {"system": "STEME", "assay": "Post-emergence herbicidal action against STEME", "assay_type": "in vivo, Stellaria media", "details": "Stellaria media, 504 h", "how_it_was_run": "as §2"}, "[24]": {"system": "VERPE", "assay": "Post-emergence herbicidal action against VERPE", "assay_type": "in vivo, Veronica persica", "details": "Veronica persica, 504 h, 20 g/ha", "how_it_was_run": "as §2"}, "[25]": {"system": "VIOTR", "assay": "Post-emergence herbicidal action against VIOTR", "assay_type": "in vivo, Viola tricolor", "details": "Viola tricolor, 504 h", "how_it_was_run": "as §2"}, "[26]": {"system": "DIGSA", "assay": "Post-emergence herbicidal action against DIGSA", "assay_type": "in vivo, Digitaria sanguinalis", "details": "Digitaria sanguinalis, 504 h", "how_it_was_run": "as §2"}, "[27]": {"details": "80 g/ha, scored visually after 3 weeks vs untreated controls (100% = plants have died, 0% = like control plants)"}, "[28]": {"details": "20 g/ha, scored visually after 3 weeks, 100% = plants have died, 0% = like control plants"}}, "data": [{"smiles": "Cn1nnnc1NC(=O)c1ccc(C(F)(F)F)c(C(=O)NC2CC2)c1Cl", "note": "[Example 1-131]", "values": [{"measurement": "pest or weed control at 80 g/ha", "setting": "[1]; [27]", "value": 100, "unit": "%"}, {"measurement": "pest or weed control at 20 g/ha", "setting": "[1]; dosage 20 g/ha, scored visually after 3 weeks vs untreated controls, 100% = plants have died, 0% = like control plants, read-out: Pre-emergence action against ABUTH (herbicidal activity in percent)", "value": 100, "unit": "%"}, {"measurement": "pest or weed control at 80 g/ha", "setting": "[2]; [27]", "value": 100, "unit": "%"}, {"measurement": "pest or weed control at 20 g/ha", "setting": "[2]; [28]", "value": 80, "unit": "%"}, {"measurement": "pest or weed control at 20 g/ha", "setting": "[3]; 20 g/ha", "value": 100, "unit": "%"}, {"measurement": "pest or weed control at 80 g/ha", "setting": "[3]; 80 g/ha", "value": 100, "unit": "%"}, {"measurement": "pest or weed control at 80 g/ha", "setting": "[4]; 80 g/ha", "value": 100, "unit": "%"}, {"measurement": "pest or weed control at 20 g/ha", "setting": "[4]; [28]", "value": 80, "unit": "%"}, {"measurement": "pest or weed control at 80 g/ha", "setting": "[5]", "value": 100, "unit": "%"}, {"measurement": "pest or weed control at 80 g/ha", "setting": "[6]", "value": 80, "unit": "%"}, {"measurement": "pest or weed control at 80 g/ha", "setting": "[7]", "value": 80, "unit": "%"}, {"measurement": "pest or weed control at 20 g/ha", "setting": "[8]; dosage 20 g/ha", "value": 100, "unit": "%"}, {"measurement": "pest or weed control at 80 g/ha", "setting": "[8]; dosage 80 g/ha", "value": 100, "unit": "%"}, {"measurement": "pest or weed control at 80 g/ha", "setting": "[9]", "value": 80, "unit": "%"}, {"measurement": "pest or weed control at 20 g/ha", "setting": "[10]; dosage 20 g/ha", "value": 80, "unit": "%"}, {"measurement": "pest or weed control at 80 g/ha", "setting": "[10]; dosage 80 g/ha", "value": 100, "unit": "%"}, {"measurement": "pest or weed control at 20 g/ha", "setting": "[11]; dosage 20 g/ha", "value": 100, "unit": "%"}, {"measurement": "pest or weed control at 80 g/ha", "setting": "[11]; dosage 80 g/ha", "value": 100, "unit": "%"}, {"measurement": "pest or weed control at 20 g/ha", "setting": "[12]; dosage 20 g/ha", "value": 100, "unit": "%"}, {"measurement": "pest or weed control at 80 g/ha", "setting": "[12]; dosage 80 g/ha", "value": 100, "unit": "%"}, {"measurement": "pest or weed control at 20 g/ha", "setting": "[13]; dosage 20 g/ha", "value": 100, "unit": "%"}, {"measurement": "pest or weed control at 80 g/ha", "setting": "[13]; dosage 80 g/ha", "value": 100, "unit": "%"}, {"measurement": "pest or weed control at 5 g/ha", "setting": "[14]; dosage 5 g/ha", "value": 90, "unit": "%"}, {"measurement": "pest or weed control at 20 g/ha", "setting": "[14]; dosage 20 g/ha", "value": 90, "unit": "%"}, {"measurement": "pest or weed control at 20 g/ha", "setting": "[15]", "value": 90, "unit": "%"}, {"measurement": "pest or weed control at 20 g/ha", "setting": "[16]", "value": 100, "unit": "%"}, {"measurement": "pest or weed control at 20 g/ha", "setting": "[17]", "value": 80, "unit": "%"}, {"measurement": "pest or weed control at 20 g/ha", "setting": "[18]", "value": 90, "unit": "%"}, {"measurement": "pest or weed control at 20 g/ha", "setting": "[19]", "value": 80, "unit": "%"}, {"measurement": "pest or weed control at 5 g/ha", "setting": "[20]; dosage 5 g/ha", "value": 90, "unit": "%"}, {"measurement": "pest or weed control at 20 g/ha", "setting": "[20]; dosage 20 g/ha", "value": 90, "unit": "%"}, {"measurement": "pest or weed control at 20 g/ha", "setting": "[21]", "value": 90, "unit": "%"}, {"measurement": "pest or weed control at 20 g/ha", "setting": "[22]", "value": 100, "unit": "%"}, {"measurement": "pest or weed control at 20 g/ha", "setting": "[23]; 20 g/ha", "value": 100, "unit": "%"}, {"measurement": "pest or weed control at 5 g/ha", "setting": "[23]; dosage 5 g/ha", "value": 80, "unit": "%"}, {"measurement": "pest or weed control at 20 g/ha", "setting": "[24]", "value": 90, "unit": "%"}, {"measurement": "pest or weed control at 5 g/ha", "setting": "[25]; 5 g/ha", "value": 100, "unit": "%"}, {"measurement": "pest or weed control at 20 g/ha", "setting": "[25]; 20 g/ha", "value": 100, "unit": "%"}, {"measurement": "pest or weed control at 5 g/ha", "setting": "[26]; 5 g/ha", "value": 100, "unit": "%"}, {"measurement": "pest or weed control at 20 g/ha", "setting": "[26]; 20 g/ha", "value": 100, "unit": "%"}]}]}
